Laboratory results taken from ChEMBL document CHEMBL5046309, “Discovery of SHR5133, a Highly Potent and Novel HBV Capsid Assembly Modulator” (ACS Med Chem Lett, 2022).
Converted amounts (≈) assume the structure as drawn. Each block holds one compound with its values, some of them ahead of it. The source made the active and inactive calls. The calls are words filed in the database; no cut-off is given here.

Experiments:
[1] = tested on: HepG2 2.2.15; assay: Cytotoxicity against human HepG2.2.15 cells assessed as reduction in cell viability incubated for 72 hrs by cell titer-glo assay; assay type: functional
[2] = tested on: Hepatitis B virus; assay: Antiviral activity against HBV infected in C57BL/6 mouse assessed as reduction on HBsAg level at 10 mg/kg,po BID for 28 days by ELISA; assay type: functional, organism-based; conditions: time 28.0 day
[3] = tested on: Hepatitis B virus; assay: Antiviral activity against HBV infected in C57BL/6 mouse assessed as reduction on HBeAg level at 10 mg/kg,po BID for 28 days by ELISA; assay type: functional, organism-based; conditions: time 28.0 day
[4] = tested on: Hepatitis B virus; assay: Antiviral activity against HBV infected in C57BL/6 mouse assessed as reduction on HBsAg level at 400 mg/kg,po BID for 28 days by ELISA; assay type: functional, organism-based; conditions: time 28.0 day
[5] = tested on: Hepatitis B virus; assay: Antiviral activity against HBV infected in C57BL/6 mouse assessed as reduction on HBeAg level at 400 mg/kg,po BID for 28 days by ELISA; assay type: functional, organism-based; conditions: time 28.0 day
[6] = molecular target: Core antigen (Hepatitis B virus) (UniProt Q03732); assay: Modulation of capsid assembly in HBV infected in human HepG2.2.15 cells assessed as maximal inhibition of viral DNA replication preincubated for 3 days followed by replacement with fresh medium containing compound and measured after 3 day by qPCR analysis; assay type: cell-based; conditions: filed as modulator, time 6.0 day
Core antigen (Hepatitis B virus), sequence (Q03732 as listed by the source): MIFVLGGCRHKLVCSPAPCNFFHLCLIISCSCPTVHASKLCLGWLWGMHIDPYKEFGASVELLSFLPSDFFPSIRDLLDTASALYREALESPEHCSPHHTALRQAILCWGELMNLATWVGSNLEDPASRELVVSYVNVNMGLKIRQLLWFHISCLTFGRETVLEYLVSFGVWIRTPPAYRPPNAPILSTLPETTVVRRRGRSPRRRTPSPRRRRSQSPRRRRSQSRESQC

[7] = Half life in Beagle dog at 0.5 mg/kg, po measured up to 24 hrs by LC-MS/MS analysis; assay type: ADME, organism-based, Canis lupus familiaris; conditions: in vivo
[8] = AUC(0 to 24 hrs) in nude mouse at 100 mg/kg, po measured up to 24 hrs by LC-MS/MS analysis; assay type: ADME, organism-based; set-up: route oral, dose 100 mg/kg, time <=24; conditions: in vivo
[9] = molecular target: T1, Cytochrome P450 1A2 (Homo sapiens, UniProt P05177); assay: Inhibition of recombinant human CYP1A2 by LC-MS/MS analysis; assay type: ADME
T1 sequence (P05177 whole entry): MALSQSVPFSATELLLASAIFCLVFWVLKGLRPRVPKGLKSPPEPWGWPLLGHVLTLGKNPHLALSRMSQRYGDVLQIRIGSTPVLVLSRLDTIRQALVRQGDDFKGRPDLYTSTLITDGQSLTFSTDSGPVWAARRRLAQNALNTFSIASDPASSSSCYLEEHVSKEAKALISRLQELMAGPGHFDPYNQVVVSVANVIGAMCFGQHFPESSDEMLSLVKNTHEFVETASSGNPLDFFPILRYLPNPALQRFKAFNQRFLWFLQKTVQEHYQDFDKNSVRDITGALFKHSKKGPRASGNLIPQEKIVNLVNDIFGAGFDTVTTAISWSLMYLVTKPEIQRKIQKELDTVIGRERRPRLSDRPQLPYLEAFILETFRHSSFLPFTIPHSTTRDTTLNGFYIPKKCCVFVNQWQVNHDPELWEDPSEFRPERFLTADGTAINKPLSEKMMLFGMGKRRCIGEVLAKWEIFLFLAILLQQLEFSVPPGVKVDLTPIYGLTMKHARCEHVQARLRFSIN

[10] = Microsomal stability in human liver microsome assessed as half life measured up to 24 hrs by LC-MS/MS analysis; assay type: ADME; conditions: liver microsomes
[11] = Clearance in Beagle dog at 1 mg/kg, iv measured up to 24 hrs by LC-MS/MS analysis; assay type: ADME, organism-based, Canis lupus familiaris; conditions: in vivo
[12] = tested on: Hepatitis B virus; assay: Antiviral activity against HBV infected in C57BL/6 mouse assessed as HBV DNA reduction at 3 to 30 mg/kg,po BID for 28 days by qPCR method; assay type: functional, organism-based; conditions: dose 3-30 mg/kg, time 28.0 day
[13] = Apparent permeability of the compound across basolateral to apical side in […] measured up to 24 hrs by LC-MS/MS analysis; assay type: ADME, cell-based
[14] = molecular target: Cytochrome P450 2C9 (Homo sapiens, UniProt P11712); assay: Inhibition of recombinant human CYP2C9 by LC-MS/MS analysis; assay type: ADME
Cytochrome P450 2C9, sequence (P11712 whole entry): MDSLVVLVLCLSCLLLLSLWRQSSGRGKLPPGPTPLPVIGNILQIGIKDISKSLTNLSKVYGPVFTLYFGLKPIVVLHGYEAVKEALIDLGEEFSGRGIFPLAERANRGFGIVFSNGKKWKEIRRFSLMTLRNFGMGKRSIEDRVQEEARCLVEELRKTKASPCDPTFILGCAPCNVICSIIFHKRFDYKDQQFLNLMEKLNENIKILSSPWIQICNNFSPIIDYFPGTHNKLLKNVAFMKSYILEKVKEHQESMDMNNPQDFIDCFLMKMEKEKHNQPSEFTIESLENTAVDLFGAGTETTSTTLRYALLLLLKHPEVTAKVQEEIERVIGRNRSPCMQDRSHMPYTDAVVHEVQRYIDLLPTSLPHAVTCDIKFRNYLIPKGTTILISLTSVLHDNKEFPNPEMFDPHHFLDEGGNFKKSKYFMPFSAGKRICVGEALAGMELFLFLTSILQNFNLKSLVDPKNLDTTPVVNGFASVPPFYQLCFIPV

[15] = Cmax in nude mouse at 2 mg/kg, po measured up to 24 hrs by LC-MS/MS analysis; assay type: ADME, organism-based; set-up: route oral, dose 2 mg/kg, time <=24; conditions: in vivo
[16] = Cmax in Beagle dog at 0.5 mg/kg, po measured up to 24 hrs by LC-MS/MS analysis; assay type: ADME, organism-based, Canis lupus familiaris; set-up: route oral, dose 0.5 mg/kg, time <=24; conditions: in vivo
[17] = Clearance in Sprague-Dawley rat at 1 mg/kg, iv measured up to 24 hrs by LC-MS/MS analysis; assay type: ADME, organism-based; conditions: in vivo
[18] = molecular target: T2, Cytochrome P450 3A4 (Homo sapiens, UniProt P08684); assay: Inhibition of recombinant human CYP3A4 using midazolam as substrate by LC-MS/MS analysis; assay type: ADME
T2 sequence (P08684 whole entry): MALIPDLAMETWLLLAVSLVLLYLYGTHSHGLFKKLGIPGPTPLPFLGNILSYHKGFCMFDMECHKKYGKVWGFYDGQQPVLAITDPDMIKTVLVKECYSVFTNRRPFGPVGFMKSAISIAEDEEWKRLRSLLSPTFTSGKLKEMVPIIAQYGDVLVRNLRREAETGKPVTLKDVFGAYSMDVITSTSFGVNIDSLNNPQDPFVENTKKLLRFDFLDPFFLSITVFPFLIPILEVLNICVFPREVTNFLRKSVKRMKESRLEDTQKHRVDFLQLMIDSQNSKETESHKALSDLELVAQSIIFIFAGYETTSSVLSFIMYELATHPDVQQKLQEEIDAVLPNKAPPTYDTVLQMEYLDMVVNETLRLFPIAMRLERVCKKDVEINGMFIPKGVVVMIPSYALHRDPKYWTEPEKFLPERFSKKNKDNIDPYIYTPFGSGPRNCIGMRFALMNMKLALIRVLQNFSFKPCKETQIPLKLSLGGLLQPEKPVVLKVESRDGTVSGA

[19] = Microsomal stability in dog liver microsome assessed as half life measured up to 24 hrs by LC-MS/MS analysis; assay type: ADME, Canis lupus familiaris; conditions: liver microsomes
[20] = Cmax in nude mouse at 100 mg/kg, po measured up to 24 hrs by LC-MS/MS analysis; assay type: ADME, organism-based; set-up: route oral, dose 100 mg/kg, time <=24; conditions: in vivo
[21] = Plasma protein binding in dog by LC-MS/MS analysis; assay type: ADME, cell-free, Canis lupus familiaris; conditions: read-out: PPB (converted)
[22] = AUC(0 to 24 hrs) in Sprague-Dawley rat at 2 mg/kg, po measured up to 24 hrs by LC-MS/MS analysis; assay type: ADME, organism-based; set-up: route oral, dose 2 mg/kg, time <=24; conditions: in vivo
[23] = AUC(0 to 24 hrs) in Beagle dog at 0.5 mg/kg, po measured up to 24 hrs by LC-MS/MS analysis; assay type: ADME, organism-based, Canis lupus familiaris; set-up: route oral, dose 0.5 mg/kg, time <=24; conditions: in vivo
[24] = Apparent permeability of the compound across apical to basolateral side in […] measured up to 24 hrs by LC-MS/MS analysis; assay type: ADME, cell-based
[25] = Half life in nude mouse at 2 mg/kg, po measured up to 24 hrs by LC-MS/MS analysis; assay type: ADME, organism-based; conditions: in vivo
[26] = molecular target: Cytochrome P450 2D6 (Homo sapiens, UniProt P10635); assay: Inhibition of recombinant human CYP2D6 by LC-MS/MS analysis; assay type: ADME
Cytochrome P450 2D6, sequence (P10635 whole entry): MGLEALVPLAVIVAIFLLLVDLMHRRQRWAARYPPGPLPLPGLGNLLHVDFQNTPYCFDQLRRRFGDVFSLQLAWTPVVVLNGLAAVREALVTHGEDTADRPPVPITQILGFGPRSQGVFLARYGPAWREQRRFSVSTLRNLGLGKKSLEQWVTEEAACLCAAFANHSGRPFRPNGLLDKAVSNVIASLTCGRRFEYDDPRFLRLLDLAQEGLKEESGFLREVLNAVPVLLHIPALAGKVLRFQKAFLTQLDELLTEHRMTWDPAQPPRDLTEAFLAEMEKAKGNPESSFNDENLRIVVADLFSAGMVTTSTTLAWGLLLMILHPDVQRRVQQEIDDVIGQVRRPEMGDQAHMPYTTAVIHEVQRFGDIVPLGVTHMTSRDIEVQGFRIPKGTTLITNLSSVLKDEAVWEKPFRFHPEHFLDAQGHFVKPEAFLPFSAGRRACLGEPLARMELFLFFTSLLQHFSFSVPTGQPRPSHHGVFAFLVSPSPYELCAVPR

[27] = Microsomal stability in mouse liver microsome assessed as half life measured up to 24 hrs by LC-MS/MS analysis; assay type: ADME; conditions: liver microsomes
[28] = Plasma protein binding in human by LC-MS/MS analysis; assay type: ADME, cell-free; conditions: read-out: PPB (converted)
[29] = Plasma protein binding in rat by LC-MS/MS analysis; assay type: ADME, cell-free; conditions: read-out: PPB (converted)
[30] = tested on: Hepatitis B virus; assay: Antiviral activity against HBV infected in C57BL/6 mouse assessed as reduction on HBsAg level at 3 to 30 mg/kg,po BID for 28 days by ELISA; assay type: functional, organism-based; conditions: dose 3-30 mg/kg, time 28.0 day
[31] = AUC(0 to 24 hrs) in nude mouse at 2 mg/kg, po measured up to 24 hrs by LC-MS/MS analysis; assay type: ADME, organism-based; set-up: route oral, dose 2 mg/kg, time <=24; conditions: in vivo
[32] = molecular target: Voltage-gated inwardly rectifying potassium channel KCNH2 (Homo sapiens, UniProt Q12809); assay: Inhibition of human ERG by LC-MS/MS analysis; assay type: toxicity
Voltage-gated inwardly rectifying potassium channel KCNH2, sequence (Q12809 whole entry): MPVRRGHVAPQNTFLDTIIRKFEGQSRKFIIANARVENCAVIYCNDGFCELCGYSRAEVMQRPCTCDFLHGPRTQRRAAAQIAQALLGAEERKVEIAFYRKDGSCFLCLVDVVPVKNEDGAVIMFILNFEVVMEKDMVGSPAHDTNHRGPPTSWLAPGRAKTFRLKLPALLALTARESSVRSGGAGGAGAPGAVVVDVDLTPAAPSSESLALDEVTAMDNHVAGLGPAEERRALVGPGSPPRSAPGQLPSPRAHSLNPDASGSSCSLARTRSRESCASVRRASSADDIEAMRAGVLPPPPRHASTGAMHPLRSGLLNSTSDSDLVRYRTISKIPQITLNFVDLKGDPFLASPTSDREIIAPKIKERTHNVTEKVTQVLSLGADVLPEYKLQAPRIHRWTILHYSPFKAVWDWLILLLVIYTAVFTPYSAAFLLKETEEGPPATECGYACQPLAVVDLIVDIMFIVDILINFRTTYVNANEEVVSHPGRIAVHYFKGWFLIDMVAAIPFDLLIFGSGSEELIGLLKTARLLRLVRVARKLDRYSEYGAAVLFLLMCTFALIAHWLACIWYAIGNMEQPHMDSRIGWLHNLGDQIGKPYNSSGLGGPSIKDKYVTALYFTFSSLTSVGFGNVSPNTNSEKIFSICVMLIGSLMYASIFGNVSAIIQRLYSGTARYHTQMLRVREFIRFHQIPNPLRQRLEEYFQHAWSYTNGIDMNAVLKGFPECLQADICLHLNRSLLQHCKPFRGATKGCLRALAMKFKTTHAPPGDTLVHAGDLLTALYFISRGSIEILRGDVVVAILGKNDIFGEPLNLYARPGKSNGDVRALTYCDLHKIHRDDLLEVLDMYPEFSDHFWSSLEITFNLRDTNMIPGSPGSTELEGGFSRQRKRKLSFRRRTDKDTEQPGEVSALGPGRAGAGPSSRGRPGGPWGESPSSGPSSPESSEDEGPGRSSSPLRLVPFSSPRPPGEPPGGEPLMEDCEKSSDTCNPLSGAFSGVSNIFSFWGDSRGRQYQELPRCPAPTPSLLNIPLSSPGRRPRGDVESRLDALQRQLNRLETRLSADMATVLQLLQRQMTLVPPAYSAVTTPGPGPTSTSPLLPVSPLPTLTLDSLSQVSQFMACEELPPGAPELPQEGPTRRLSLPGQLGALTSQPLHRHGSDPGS

[33] = Solubility of the compound in FaSSIF using amorphous form of sample by LC-MS/MS analysis; assay type: physicochemical
[34] = Cmax in nude mouse at 10 mg/kg, po measured up to 24 hrs by LC-MS/MS analysis; assay type: ADME, organism-based; set-up: route oral, dose 10 mg/kg, time <=24; conditions: in vivo
[35] = Microsomal stability in rat liver microsome assessed as half life measured up to 24 hrs by LC-MS/MS analysis; assay type: ADME; conditions: liver microsomes
[36] = Clearance in nude mouse at 1 mg/kg, iv measured up to 24 hrs by LC-MS/MS analysis; assay type: ADME, organism-based; conditions: in vivo
[37] = Efflux ratio of apparent permeability across basolateral to apical side over apical to basolateral side in […] by LC-MS/MS analysis; assay type: ADME, cell-based
[38] = Half life in nude mouse at 100 mg/kg, po measured up to 24 hrs by LC-MS/MS analysis; assay type: ADME, organism-based; conditions: in vivo
[39] = Solubility of the compound in phosphate buffer at pH 7.4 using amorphous form of sample by LC-MS/MS analysis; assay type: physicochemical
[40] = molecular target: Cytochrome P450 2C19 (Homo sapiens, UniProt P33261); assay: Inhibition of recombinant human CYP2C19 by LC-MS/MS analysis; assay type: ADME
Cytochrome P450 2C19, sequence (P33261 whole entry): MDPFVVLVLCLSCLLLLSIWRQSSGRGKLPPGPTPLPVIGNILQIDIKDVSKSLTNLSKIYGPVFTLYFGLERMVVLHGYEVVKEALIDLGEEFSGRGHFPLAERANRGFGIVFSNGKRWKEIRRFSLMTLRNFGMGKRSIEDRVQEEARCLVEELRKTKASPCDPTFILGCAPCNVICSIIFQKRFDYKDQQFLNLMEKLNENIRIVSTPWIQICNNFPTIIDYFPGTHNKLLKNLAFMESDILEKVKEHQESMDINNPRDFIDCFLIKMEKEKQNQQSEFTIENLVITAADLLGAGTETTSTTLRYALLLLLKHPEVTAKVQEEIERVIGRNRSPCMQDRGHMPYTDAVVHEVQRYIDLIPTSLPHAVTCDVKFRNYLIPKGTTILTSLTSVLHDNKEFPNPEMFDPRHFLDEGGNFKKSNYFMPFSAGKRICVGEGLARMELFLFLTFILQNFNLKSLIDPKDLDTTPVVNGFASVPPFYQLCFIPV

[41] = Cmax in Sprague-Dawley rat at 2 mg/kg, po measured up to 24 hrs by LC-MS/MS analysis; assay type: ADME, organism-based; set-up: route oral, dose 2 mg/kg, time <=24; conditions: in vivo
[42] = AUC(0 to 24 hrs) in nude mouse at 10 mg/kg, po measured up to 24 hrs by LC-MS/MS analysis; assay type: ADME, organism-based; set-up: route oral, dose 10 mg/kg, time <=24; conditions: in vivo
[43] = Plasma protein binding in mouse by LC-MS/MS analysis; assay type: ADME, cell-free; conditions: read-out: PPB (converted)
[44] = Lipophilicity, logD of compound at pH 7.4 by LC-MS/MS analysis; assay type: physicochemical; conditions: buffer
[45] = molecular target: T2, Cytochrome P450 3A4; assay: Inhibition of recombinant human CYP3A4 using testosterone as substrate by LC-MS/MS analysis; assay type: ADME
[46] = Half life in nude mouse at 10 mg/kg, po measured up to 24 hrs by LC-MS/MS analysis; assay type: ADME, organism-based; conditions: in vivo
[47] = tested on: Hepatitis B virus; assay: Antiviral activity against HBV infected in C57BL/6 mouse assessed as reduction on HBeAg level at 3 to 30 mg/kg,po BID for 28 days by ELISA; assay type: functional, organism-based; conditions: dose 3-30 mg/kg, time 28.0 day

Compound: C[C@H](NC(=O)c1ncn2c1CN(C(=O)Nc1ccc(F)c(C#N)c1)[C@@H](C)C2)C(F)(F)F
Activity [1]: inactive

Compound: C[C@H](NS(=O)(=O)c1cc(C(=O)Nc2ccc(F)c(C#N)c2)n(C)c1)C(F)(F)F
Activity [2]: inactive
Activity [3]: inactive

Compound: C[C@H]1Cn2ncc(C(=O)N[C@H](C)C(F)(F)F)c2CN1C(=O)Nc1ccc(F)c(F)c1
CC50 [1]: > 100 µM

Compound: O=C(Nc1cc(F)c(F)c(F)c1)c1ccc(F)c(S(=O)(=O)N2CCC(O)CC2)c1
Activity [4]: inactive
Activity [5]: inactive

Compound: C[C@@H]1Cn2cnc(C(=O)N[C@H](C)C(F)(F)F)c2CN1C(=O)Nc1ccc(F)c(F)c1
CC50 [1]: > 100 µM

Compound: C[C@H]1CN(C(=O)Nc2ccc(F)c(F)c2)Cc2c(C(=O)N[C@H](C)C(F)(F)F)ncn21
Activity [1]: inactive
Emax [6]: 60%

half-life [7]: 30.8 h
AUC [8]: 28.9 µg/mL/h
IC50 [9]: > 30 µM
half-life [10]: > 2.32 h
clearance [11]: 1.1 mL/min/kg
Papp B→A at 24 h [13]: 51.4 ×10⁻⁶ cm/s
IC50 [14]: > 30 µM
Cmax [15]: 1120 ng/mL
Cmax [16]: 559 ng/mL
clearance [17]: 4.5 mL/min/kg
IC50 [18]: > 30 µM
half-life [19]: > 2.32 h
Cmax [20]: 22200 ng/mL
fraction unbound [21]: 0.23
AUC [22]: 7.98 µg/mL/h
AUC [23]: 9.01 µg/mL/h
Papp A→B at 24 h [24]: 10.9 ×10⁻⁶ cm/s
half-life [25]: 5.04 h
IC50 [26]: > 30 µM
half-life [27]: > 2 h
fraction unbound [28]: 0.113
fraction unbound [29]: 0.244
AUC [31]: 7.16 µg/mL/h
solubility [33]: 1640 µM (≈ 718 µg/mL)
Cmax [34]: 4600 ng/mL
half-life [35]: > 1.12 h
clearance [36]: 5.3 mL/min/kg
efflux ratio [37]: 4.73
half-life [38]: 4.97 h
solubility [39]: 106 µM (≈ 46.5 µg/mL)
IC50 [40]: > 30 µM
Cmax [41]: 597 ng/mL
AUC [42]: 24.4 µg/mL/h
fraction unbound [43]: 0.12
logD [44]: 2.27
IC50 [45]: > 30 µM
half-life [46]: 3.38 h
Compound: C[C@H]1Cn2cnc(C(=O)N[C@H](C)C(F)(F)F)c2CN1C(=O)Nc1ccc(F)c(C#N)c1
Activity [12]: Dose-Dependent Effect
CC50 [1]: > 100 µM
Activity [30]: inactive
IC50 [32]: > 30 µM
Activity [47]: inactive
